Data reported in patent publication US20210363254A1, “PHARMACEUTICAL COMBINATIONS” (Novartis AG, priority 2018, published 2021).
Where two headings read alike, the source gives them in different places.

Columns and labels:
[1] = type: in vivo, human
Method: Pharmacokinetic data have been evaluated throughout the course of the dose escalation. Two HDM201 drug variants have been evaluated during the course of the study (refer to the protocol for further details). […] Furthermore, an integrated analysis of all available HDM201 concentrations was conducted using a population approach. The PK of HDM201 was best described by a 1-compartment PK model with a delayed zero- and first-order absorption process, and a linear clearance. Body weight was identified as a statistically significant covariate on apparent central volume of distribution (Vc/F), in which Vc/F increased with increasing body weight.
To further support the preferred dose for HDM201, compartmental PK modeling was used to estimate the individual average concentration per cycle for the 9 patients treated at 120 mg on regimen 1B (FIG. 15). For the majority of patients (7 out of 9), the estimated average drug concentrations per cycle were near or above the most conservative average tumor stasis concentration of ˜41 ng/mL per cycle determined from PKPD modeling of preclinical data (human SJSA-1 xenograft rat model).
(§1) Compartmental population PK modeling of NVP-HDM201 was used to estimate the individual average plasma concentration for Cycle 1 and to allow comparison with preclinical average concentration for tumor stasis derived by PK/PD tumor growth modeling. […] The dashed line at concentration of ≈19 ng/mL represents average tumor stasis determined from PK/PD modeling of preclinical data from a liposarcoma (HSAX2655) patient-derived xenograft rat model.

[2] = system: AH1-specific CD8+ T cells; assay: Anti-tumor memory T cell responses: IFN-γ ELISPOT with AH1 peptide and H2Ld-AH1 dextramers on splenocytes; type: cell-based, mouse
Source text: Consistent with this, we observed an increase in frequency of AH1-specific CD8^+ T cells in spleens of mice treated with HDM201 or combination of HDM201 with anti-PD1 antibody induced responders as detected by H2Ld-AH1 dextramers. (FIGS. 28 and 29).

[3] = system: human HSAX2655 (liposarcoma) PDX; assay: TGI PK/PD modelling, human HSAX2655 (liposarcoma) PDX rat; type: in vivo
Method: as §1

[4] = system: p53 knock out Colon 26 clones; assay: p53 KO Colon26 model; type: in vivo, mouse
Method: p53 knock out Colon 26 Clones were grown in the presence of 1 μM HDM201 and screened for p53 expression by western blot, loading 40 μg total protein/sample, using an anti p53 antibody (Cell Signaling CST #2524). p53 negative clones were identified, grown without HDM201 for 4 days and then re-treated with 1 μM HDM201 for 24 hours, along with Colon26 parental cells, to monitor p53 pathway’ response. p53 and p21 changes were monitored by western blot and an 84 gene qPCR array was used to additionally confirm pathway activity (RT2 Profiler PCR Array p53 pathway, Cat No. 330231 PAMM-027ZA Qiagen). Select clones were also submitted for RNASeq analysis.
There was no additional benefit observed when the PD-1/PD-L1 axis was blocked (FIG. 30).

COc1ncc(-c2nc3c(n2C(C)C)[C@H](c2ccc(Cl)cc2)N(c2cc(Cl)cn(C)c2=O)C3=O)c(OC)n1 [HDM201, (S)-5-(5-Chloro-1-methyl-2-oxo-1,2-dihydro-pyridin-3-yl)-6-(4-chloro-phenyl)-2-(2,4-dimethoxy-pyrimidin-5-yl)-1-isopropyl-5,6-dihydro-1H-pyrrolo[3,4-d]imidazol-4-one]
steady-state reached ([1]; daily dosing): ≤ 8 days | median time to reach maximum plasma concentrations (Tmax) ([1]; dose range 2 to 350 mg): 2 to 5.8 h | accumulation upon daily dosing ([1]; human, in vivo): limited accumulation | patients with estimated average drug concentration per cycle near or above ~41 ng/mL ([1]; regimen 1B 120 mg, compartmental PK modeling): 7 out of 9 | frequency of AH1-specific CD8+ T cells in spleens (H2Ld-AH1 dextramers) ([2]; responder mice): increase | antigen-specific production of IFN-γ by T cells (ELISPOT) ([2]; splenocytes of responder mice stimulated with AH1 peptide): detected in all responders | Average concentration for tumor stasis [3]: 19 ng/mL | Average concentration for tumor stasis ([3]; listed as NVP-HDM201): ≈ 19 ng/mL | tumor growth inhibition [4]: not able to inhibit tumor growth
